#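 Exposure lasted 48 hours, with cells grown in 96-well plates and compounds tested at five concentrations. The concentration for 50% growth inhibition is given as GI50.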 Calls of active or inactive are those of the source. Rule as the data show it: active = GI50 up to about 1.1 µM and inactive = higher.
# Legend:
# Test in all cases: NCI anticancer screen, dose series, 48 h
# K562 = test system: K562
# NCI/ADR-RES = test system: NCI/ADR-RES
# M14 = test system: M14
# T47D = test system: T47D
# SF-268 = test system: SF-268
# ACHN = test system: ACHN
# 786-0 = test system: 786-0
# HCC 2998 = test system: HCC 2998
# NCI-H522 = test system: NCI-H522
# SNB-75 = test system: SNB-75
# KM12 = test system: KM12
# IGROV-1 = test system: IGROV-1
# CAKI-1 = test system: CAKI-1
# HOP-62 = test system: HOP-62
# HCT-116 = test system: HCT-116
# TK-10 = test system: TK-10
# OVCAR-4 = test system: OVCAR-4
# RXF 393 = test system: RXF 393
# RPMI-8226 = test system: RPMI-8226
SMILES,GI50 (K562),GI50 (NCI/ADR-RES),GI50 (M14),GI50 (T47D),GI50 (SF-268),GI50 (ACHN),GI50 (786-0),GI50 (HCC 2998),GI50 (NCI-H522),GI50 (SNB-75),GI50 (KM12),GI50 (IGROV-1),GI50 (CAKI-1),GI50 (HOP-62),GI50 (HCT-116),GI50 (TK-10),GI50 (OVCAR-4),GI50 (RXF 393),GI50 (RPMI-8226)
COC(=O)c1cc(C)ccc1CC(Cc1ccccc1C)C(=O)OC (stereo not given),10.6 µM (inactive),32.6 µM (inactive),29.6 µM (inactive),26 µM (inactive),61.2 µM (inactive),75.2 µM (inactive),89.5 µM (inactive),34.9 µM (inactive),25.8 µM (inactive),> 100 µM (inactive),23.8 µM (inactive),45.9 µM (inactive),32.8 µM (inactive),> 100 µM (inactive),14.7 µM (inactive),> 100 µM (inactive),29.7 µM (inactive),26.9 µM (inactive),
c1ccc(C(/C(=N/c2ccc(Cc3ccc(/N=C(\C(c4ccccc4)c4ccccc4)N4CC4)cc3)cc2)N2CC2)c2ccccc2)cc1,2.33 µM (inactive),9.25 µM (inactive),14.3 µM (inactive),2.61 µM (inactive),4.86 µM (inactive),5.82 µM (inactive),14.8 µM (inactive),10.1 µM (inactive),3.14 µM (inactive),,6.28 µM (inactive),0.942 µM (active),6.95 µM (inactive),12.8 µM (inactive),4.36 µM (inactive),14.2 µM (inactive),,1.09 µM (active),3.65 µM (inactive)
O=[N+]([O-])c1ccc2nc3c(nc2c1)-c1c2ccccc2cc2cccc-3c12,6.1 µM (inactive),3.97 µM (inactive),31.3 µM (inactive),0.142 µM (active),13.8 µM (inactive),2.74 µM (inactive),7.62 µM (inactive),33.3 µM (inactive),3.3 µM (inactive),,3.61 µM (inactive),4.43 µM (inactive),9.77 µM (inactive),18.6 µM (inactive),2.87 µM (inactive),25.1 µM (inactive),24.3 µM (inactive),8.41 µM (inactive),17.7 µM (inactive)
O=C(NCCNCCCNC(=O)c1cc(-c2ccccc2)nc2ccccc12)c1cccc(O)c1O,2 µM (inactive),22.4 µM (inactive),1.46 µM (inactive),3.3 µM (inactive),2.86 µM (inactive),2.43 µM (inactive),2.62 µM (inactive),3.73 µM (inactive),6.82 µM (inactive),10.6 µM (inactive),4.44 µM (inactive),7.82 µM (inactive),5.4 µM (inactive),1.05 µM (active),1.47 µM (inactive),1.63 µM (inactive),,4.84 µM (inactive),2.85 µM (inactive)
COC(=O)C1(C(=O)OC)N=C(C)OC1/C=C/c1ccccc1 (stereo not given),> 100 µM (inactive),> 100 µM (inactive),> 100 µM (inactive),> 100 µM (inactive),,> 100 µM (inactive),> 100 µM (inactive),> 100 µM (inactive),,> 100 µM (inactive),> 100 µM (inactive),> 100 µM (inactive),> 100 µM (inactive),> 100 µM (inactive),> 100 µM (inactive),> 100 µM (inactive),> 100 µM (inactive),> 100 µM (inactive),38 µM (inactive)
N#Cc1ccc(CSC2=C(c3ccc(Cl)cc3)S/C(=C3\SC(SCc4ccc(C#N)cc4)=C(c4ccc(Cl)cc4)S3)S2)cc1,> 100 µM (inactive),> 100 µM (inactive),> 100 µM (inactive),> 100 µM (inactive),> 100 µM (inactive),> 100 µM (inactive),> 100 µM (inactive),> 100 µM (inactive),> 100 µM (inactive),,> 100 µM (inactive),> 100 µM (inactive),> 100 µM (inactive),> 100 µM (inactive),> 100 µM (inactive),> 100 µM (inactive),> 100 µM (inactive),> 100 µM (inactive),> 100 µM (inactive)
COc1cc(N(CCC#N)CCC#N)ccc1C(/N=N/c1cccc(C)c1)=N\NC(=O)c1ccc(C)cc1,> 100 µM (inactive),> 100 µM (inactive),> 100 µM (inactive),66.2 µM (inactive),35.5 µM (inactive),21.8 µM (inactive),> 100 µM (inactive),79.3 µM (inactive),80.5 µM (inactive),,> 100 µM (inactive),> 100 µM (inactive),> 100 µM (inactive),> 100 µM (inactive),> 100 µM (inactive),57.7 µM (inactive),> 100 µM (inactive),73.8 µM (inactive),35.7 µM (inactive)
CCOC(=O)CC1(Cc2ccc(OCc3ccccc3)cc2)C(=O)OC(c2ccccc2)N1C(=O)c1ccccc1 (stereo not given),> 100 µM (inactive),> 100 µM (inactive),> 100 µM (inactive),> 100 µM (inactive),> 100 µM (inactive),> 100 µM (inactive),> 100 µM (inactive),28 µM (inactive),> 100 µM (inactive),,> 100 µM (inactive),> 100 µM (inactive),> 100 µM (inactive),> 100 µM (inactive),> 100 µM (inactive),> 100 µM (inactive),> 100 µM (inactive),> 100 µM (inactive),> 100 µM (inactive)
NC(=O)NCCCC(NC(=O)OCCCCn1ccc(=O)[nH]c1=O)C(=O)O (stereo not given),> 100 µM (inactive),> 100 µM (inactive),> 100 µM (inactive),> 100 µM (inactive),> 100 µM (inactive),> 100 µM (inactive),> 100 µM (inactive),> 100 µM (inactive),,> 100 µM (inactive),> 100 µM (inactive),> 100 µM (inactive),> 100 µM (inactive),> 100 µM (inactive),> 100 µM (inactive),> 100 µM (inactive),> 100 µM (inactive),> 100 µM (inactive),> 100 µM (inactive)
CCOC(=O)c1c(N=P(c2ccccc2)(c2ccccc2)c2ccccc2)nnc(-c2ccccc2)c1-c1ccccc1,> 100 µM (inactive),> 100 µM (inactive),> 100 µM (inactive),> 100 µM (inactive),> 100 µM (inactive),> 100 µM (inactive),> 100 µM (inactive),> 100 µM (inactive),> 100 µM (inactive),6.68 µM (inactive),> 100 µM (inactive),> 100 µM (inactive),,> 100 µM (inactive),> 100 µM (inactive),> 100 µM (inactive),> 100 µM (inactive),61.1 µM (inactive),
Cn1c2ccccc2c2[nH]c3ccccc3c(=O)c21,> 100 µM (inactive),> 100 µM (inactive),> 100 µM (inactive),43 µM (inactive),> 100 µM (inactive),> 100 µM (inactive),> 100 µM (inactive),> 100 µM (inactive),,69.2 µM (inactive),> 100 µM (inactive),> 100 µM (inactive),> 100 µM (inactive),> 100 µM (inactive),53.3 µM (inactive),> 100 µM (inactive),> 10 µM (inactive),> 100 µM (inactive),> 100 µM (inactive)
